For assay [1], the system named is Onchocerca gutturosa. In words: Onchocerca gutturosa motility, using parasites, medium, serum, cells and test drugs. The following applies: with serum and cells. The procedure:
(§1) Testing in vitro against Onchocerca gutturosa is a valid model for activity against Onchocerca volvulus. Testing of test drugs (Compounds 1, 2, 3, 4, 5, 7, 8, 9, 11, and 12 of Table 1) against the parasitic worms Onchocerca gutturosa was carried out in accordance with the method described in J Helminth (1987) 60, 271, firstly using parasites, medium, serum, cells and test drugs.

Assay [2] concerns Onchocerca gutturosa. In words: Tetrazolium colorimetric test (formazan formation), using parasites, medium, cells and test drug. The note with it: 5x10⁻⁵ M printed for the test Compounds. As for the experimental part: A suitable colorimetric assay uses formation of formazan, a blue dye, from tetrazolium cation generated by 3-[…] bromide (J Helminth (1987) 60, 271). Firstly, Compounds 1, 2, 3, 4, 5, 7, 8, 9, 11 and 12, along with artemisinin and arteether were tested using parasites, medium, cells and test drug.

In assay [3] the test system is Onchocerca gutturosa. In words: Onchocerca gutturosa motility, using parasites, medium and drug. The note with it: medium and drug only, time not given. The procedure:
as §1, with “drugs. Secondly, test drugs (Compounds 2, 3, 4, 7, 8, 9 and 12 of Table 1) were tested using parasites, medium and drug. […] However, between 4 and 7 days, all the tested Compounds had completely immobilized the worms. Under these conditions, commercial anti-helminthic drugs and artemisinin also cut motility by some 30-40%.” for “drugs.”

Consider three compounds from patent EP0338756B1, “Use of 1,2,4-trioxanes as antiparasitics and anthelmintics” (OXACO S.A., priority 1988, dated 1989).

`CC1(C)OO[C@]2(c3ccccc3)CCC(c3ccccc3)=C[C@@H]2O1` (relative stereo) [Compound 12] registered a reduced motility in assay [1] (after 7 days) of 100%. The effect on motility result in assay [1] (two to three days exposure) is “markedly inhibitory”. Also, the “inhibition of formazan formation” value in assay [2] is “more than 90%”.
In assay [1] (after a day), `CCO[C@H]1O[C@@H]2O[C@@]3(C)CC[C@H]4[C@H](C)CC[C@@H]([C@H]1C)[C@@]24OO3` [arteether] came in with a reduced motility of 30%.
For the compound `C[C@@H]1CC[C@H]2[C@@H](C)C(=O)O[C@@H]3O[C@@]4(C)CC[C@@H]1[C@]32OO4` [artemisinin, Artemisinin], in assay [1] (a day's exposure), the effect on motility result is “ineffective”. In addition, the cut motility in assay [3] is on record as 30-40%.
